Experimental data: patent publication US9937183B2, “Antimicrobial compounds and methods of making and using the same” (priority 2013, dated 2018)
Values after ≈ are worked out from the molar mass of the structure shown. Like-named read-outs stand apart in the source and are kept apart here.

Tests used:
Assay type in all cases: cell-based
A. baumannii 1705936 = test: MIC, microtiter-based liquid assay (CLSI); settings: Acinetobacter baumannii, MDR strain
K. pneumoniae 1705949 = test: MIC, microtiter-based liquid assay (CLSI); settings: Klebsiella pneumoniae, MDR strain
K. pneumoniae 1705966 = test: MIC, microtiter-based liquid assay (CLSI); settings: Klebsiella pneumoniae
P. aeruginosa 1705886 = test: MIC, microtiter-based liquid assay (CLSI); settings: Pseudomonas aeruginosa
[1] = test system: S. pneumoniae 02J1175 Mef(A); test: MIC, microtiter-based liquid assay (CLSI); settings: Streptococcus pneumoniae
E. coli 1705878 = test: MIC, microtiter-based liquid assay (CLSI); settings: Escherichia coli, MDR strain
E. coli CAG12184 TolC = test: MIC, microtiter-based liquid assay (CLSI); settings: Escherichia coli, CAG12184TOLC
B. anthracis = test: microbe, parasite or virus in culture; settings: Bacillus anthracis; for MIC50: read-out: B. anthracis MIC50; for MIC90: read-out: B. anthracis MIC90; for MIC: read-out: B. anthracis MIC Range
[2] = test system: E. faecium A6349 VanA + LNZ-R; test: MIC, microtiter-based liquid assay (CLSI); settings: Enterococcus faecium
F. tularensis = test: microbe, parasite or virus in culture; settings: Francisella tularensis; for MIC50: read-out: F. tularensis MIC50; for MIC90: read-out: F. tularensis MIC90; for MIC: read-out: F. tularensis MIC Range
E. coli MG1655 parent = test: MIC, microtiter-based liquid assay (CLSI); settings: Escherichia coli
S. aureus 11540 MRSA = test: MIC, microtiter-based liquid assay (CLSI); settings: Staphylococcus aureus
E. coli ATCC25922 = test: MIC, microtiter-based liquid assay (CLSI); settings: Escherichia coli
Y. pestis = test: microbe, parasite or virus in culture; settings: Yersinia pestis; for MIC50: read-out: Y. pestis MIC50; for MIC90: read-out: Y. pestis MIC90; for MIC: read-out: Y. pestis MIC Range
P. aeruginosa ATCC27853 = test: MIC, microtiter-based liquid assay (CLSI); settings: Pseudomonas aeruginosa
P. aeruginosa 1705904 = test: MIC, microtiter-based liquid assay (CLSI); settings: Pseudomonas aeruginosa, MDR strain
B. pseudomallei = test: microbe, parasite or virus in culture; settings: Burkholderia pseudomallei; for MIC50: read-out: B. pseudomallei MIC50; for MIC90: read-out: B. pseudomallei MIC90; for MIC: read-out: B. pseudomallei MIC Range
A. baumannii 1705943 = test: MIC, microtiter-based liquid assay (CLSI); settings: Acinetobacter baumannii
B. mallei = test: microbe, parasite or virus in culture; settings: Burkholderia mallei; for MIC50: read-out: B. mallei MIC50; for MIC90: read-out: B. mallei MIC90; for MIC: read-out: B. mallei MIC Range
[3] = ATCC25922, read-out: MIC E. coli ATCC25922 + 50% HS
[4] = ATCC25922, read-out: MIC E. coli ATCC25922

| SMILES | MIC (A. baumannii 1705936) [µg/mL] | MIC (K. pneumoniae 1705949) [µg/mL] | MIC (K. pneumoniae 1705966) [µg/mL] | MIC (P. aeruginosa 1705886) [µg/mL] | MIC [1] [µg/mL] | MIC (E. coli 1705878) [µg/mL] | MIC (E. coli CAG12184 TolC) [µg/mL] | MIC50 (B. anthracis) [µg/mL] | MIC90 (B. anthracis) [µg/mL] | MIC (B. anthracis) [µg/mL] | MIC [2] [µg/mL] | MIC50 (F. tularensis) [µg/mL] | MIC90 (F. tularensis) [µg/mL] | MIC (F. tularensis) [µg/mL] | MIC (E. coli MG1655 parent) [µg/mL] | MIC (S. aureus 11540 MRSA) [µg/mL] | MIC (E. coli ATCC25922; [3]) [µg/mL] | MIC (E. coli ATCC25922; [4]) [µg/mL] | MIC50 (Y. pestis) [µg/mL] | MIC90 (Y. pestis) [µg/mL] | other results |
| --- | --- | --- | --- | --- | --- | --- | --- | --- | --- | --- | --- | --- | --- | --- | --- | --- | --- | --- | --- | --- | --- |
| COC[C@H](N)CCCc1cc(Cl)c(F)c(-c2cc3cn(-c4ccc(CNCCCNC(=N)N)cc4)c(=O)nc3[nH]2)c1 [Compound 6] | 4 (≈ 6.86 µM) | 2 (≈ 3.43 µM) | 0.5 (≈ 0.857 µM) | 4 (≈ 6.86 µM) | 0.25 (≈ 0.429 µM) | 1 (≈ 1.71 µM) | 0.25 (≈ 0.429 µM) | 0.5 (≈ 0.857 µM) | 0.5 (≈ 0.857 µM) | 0.06 to 1 (≈ 0.103 to 1.71 µM) | 4 | ≤ 0.03 | 0.06 (≈ 0.103 µM) | 0.03 to 1 (≈ 0.0514 to 1.71 µM) | 0.25 (≈ 0.429 µM) | 0.25 (≈ 0.429 µM) | 0.25 | 0.5 (≈ 0.857 µM) | 0.25 (≈ 0.429 µM) | > 16 | MIC (P. aeruginosa ATCC27853): 8 µg/mL (≈ 13.7 µM); MIC (P. aeruginosa 1705904): 8 µg/mL (≈ 13.7 µM); MIC50 (B. pseudomallei): 8 µg/mL (≈ 13.7 µM); MIC90 (B. pseudomallei): 16 µg/mL (≈ 27.4 µM); MIC (B. pseudomallei): 1 to 32 µg/mL (≈ 1.71 to 54.9 µM); MIC (A. baumannii 1705943): 0.25 µg/mL (≈ 0.429 µM); MIC50 (B. mallei): ≤ 0.03 µg/mL; MIC90 (B. mallei): 0.12 µg/mL (≈ 0.206 µM); MIC (B. mallei): 0.03 to 0.5 µg/mL (≈ 0.0514 to 0.857 µM) |
| C=C[C@H](NCCCNC(=N)N)c1ccc(-n2cc3cc(-c4cc(CCC[C@H](C)N)cc(Cl)c4F)[nH]c3nc2=O)cc1 [Compound 10] | 2 (≈ 3.45 µM) | 0.5 (≈ 0.863 µM) | 0.25 (≈ 0.432 µM) | 2 (≈ 3.45 µM) | 0.25 (≈ 0.432 µM) | 0.5 (≈ 0.863 µM) | 0.25 (≈ 0.432 µM) | 0.12 (≈ 0.207 µM) | 0.25 (≈ 0.432 µM) | 0.03 to 0.25 (≈ 0.0518 to 0.432 µM) | 0.5 | ≤ 0.03 | 0.06 (≈ 0.104 µM) | 0.03 to 4 (≈ 0.0518 to 6.91 µM) | 0.25 (≈ 0.432 µM) | 0.25 (≈ 0.432 µM) | 0.25 | 0.25 (≈ 0.432 µM) | ≤ 0.03 | 0.06 (≈ 0.104 µM) | MIC (Y. pestis): 0.03 to 0.25 µg/mL (≈ 0.0518 to 0.432 µM); MIC (P. aeruginosa ATCC27853): 4 µg/mL (≈ 6.91 µM); MIC (P. aeruginosa 1705904): 4 µg/mL (≈ 6.91 µM); MIC50 (B. pseudomallei): 1 µg/mL (≈ 1.73 µM); MIC90 (B. pseudomallei): 2 µg/mL (≈ 3.45 µM); MIC (B. pseudomallei): 0.25 to 8 µg/mL (≈ 0.432 to 13.8 µM); MIC (A. baumannii 1705943): 0.25 µg/mL (≈ 0.432 µM); MIC50 (B. mallei): ≤ 0.03 µg/mL; MIC90 (B. mallei): 0.12 µg/mL (≈ 0.207 µM); MIC (B. mallei): 0.03 to 0.25 µg/mL (≈ 0.0518 to 0.432 µM) |
| C=C[C@@H](NCCCNC(=N)N)c1ccc(-n2cc3cc(-c4cc(CCC[C@H](C)N)cc(Cl)c4F)[nH]c3nc2=O)cc1 [Compound 11] | 1 (≈ 1.73 µM) | 8 (≈ 13.8 µM) | 1 (≈ 1.73 µM) | 4 (≈ 6.91 µM) | 2 (≈ 3.45 µM) | 0.5 (≈ 0.863 µM) | 0.25 (≈ 0.432 µM) | 0.25 (≈ 0.432 µM) | 0.5 (≈ 0.863 µM) | 0.12 to 0.5 (≈ 0.207 to 0.863 µM) | 4 | 0.06 (≈ 0.104 µM) | 0.25 (≈ 0.432 µM) | 0.03 to 4 (≈ 0.0518 to 6.91 µM) | 0.25 (≈ 0.432 µM) | 0.5 (≈ 0.863 µM) | 0.5 | 0.25 (≈ 0.432 µM) | ≤ 0.03 | 0.12 (≈ 0.207 µM) | MIC (Y. pestis): 0.03 to 0.5 µg/mL (≈ 0.0518 to 0.863 µM); MIC (P. aeruginosa ATCC27853): 4 µg/mL (≈ 6.91 µM); MIC (P. aeruginosa 1705904): 8 µg/mL (≈ 13.8 µM); MIC50 (B. pseudomallei): 1 µg/mL (≈ 1.73 µM); MIC90 (B. pseudomallei): 4 µg/mL (≈ 6.91 µM); MIC (B. pseudomallei): 0.25 to 8 µg/mL (≈ 0.432 to 13.8 µM); MIC (A. baumannii 1705943): 0.25 µg/mL (≈ 0.432 µM); MIC50 (B. mallei): ≤ 0.03 µg/mL; MIC90 (B. mallei): 0.12 µg/mL (≈ 0.207 µM); MIC (B. mallei): 0.03 to 0.25 µg/mL (≈ 0.0518 to 0.432 µM) |
